Measured values as given in ChEMBL document CHEMBL3885881, “DrugMatrix”.

Species: Rattus norvegicus
Test: DrugMatrix - Regimen: Daily Repeat
Assay type: toxicity, organism-based, Sprague-Dawley
Parameters: regimen Daily Repeat, gender Male, age 6-8 weeks
Conditions: in vivo, po, route oral GAVAGE, vehicle .5 % CMC; for ABSOLUTE BASOPHIL / ABSOLUTE EOSINOPHIL / ABSOLUTE LYMPHOCYTE / ABSOLUTE MONOCYTE / ABSOLUTE SEGMENTED NEUTROPHIL / BASOPHIL / EOSINOPHIL / ERYTHROCYTE COUNT / HEMATOCRIT / HEMOGLOBIN / LEUKOCYTE COUNT / LYMPHOCYTE / MEAN CORPUSCULAR HEMOGLOBIN / MEAN CORPUSCULAR HEMOGLOBIN CONCENTRATION / MONOCYTE / NEUTROPHIL / NUCLEATED RED BLOOD CELLS / PLATELET COUNT: tissue Blood; for ALANINE AMINOTRANSFERASE / ALBUMIN / ALKALINE PHOSPHATASE / ASPARTATE AMINOTRANSFERASE / BLOOD UREA NITROGEN / CARBON DIOXIDE / CHLORIDE / CHOLESTEROL / CREATINE PHOSPHOKINASE / CREATININE / GLUCOSE / LACTATE DEHYDROGENASE / LIPASE / PHOSPHORUS / POTASSIUM / SODIUM / TOTAL BILIRUBIN / TOTAL PROTEIN / URIC ACID: tissue Plasma
[1] = 3 mg/kg, 120 h, dose level Low, time 5 day
[2] = 2000 mg/kg, 72 h, dose level High, time 3 day
[3] = 2000 mg/kg, 120 h, dose level High, time 5 day

COc1cc2nc(N3CCN(C(=O)c4ccco4)CC3)nc(N)c2cc1OC [PRAZOSIN]
ABSOLUTE BASOPHIL [1]: 0 CELLS/uL | ABSOLUTE EOSINOPHIL [1]: 228.67 CELLS/uL | ABSOLUTE LYMPHOCYTE [1]: 11545.33 CELLS/uL | ABSOLUTE MONOCYTE [1]: 136 CELLS/uL | ABSOLUTE SEGMENTED NEUTROPHIL [1]: 1690 CELLS/uL | BASOPHIL [1]: 0% | EOSINOPHIL [1]: 1.67% | ERYTHROCYTE COUNT [1]: 5.54 x10E6/uL | HEMATOCRIT [1]: 34.63% | HEMOGLOBIN [1]: 13.5 G/DL | LEUKOCYTE COUNT [1]: 13.6 x10E3/uL | LYMPHOCYTE [1]: 85.33% | MEAN CORPUSCULAR HEMOGLOBIN [1]: 24.47 pg | MEAN CORPUSCULAR HEMOGLOBIN CONCENTRATION [1]: 39.03 G/DL | MONOCYTE [1]: 1% | NEUTROPHIL [1]: 12% | NUCLEATED RED BLOOD CELLS [1]: 0 /100WBC | PLATELET COUNT [1]: 1245 x10E3/uL | ALANINE AMINOTRANSFERASE [1]: 57.33 u/L | ALBUMIN [1]: 4.23 G/DL | ALKALINE PHOSPHATASE [1]: 336.33 u/L | ASPARTATE AMINOTRANSFERASE [1]: 106.67 u/L | BLOOD UREA NITROGEN [1]: 16.67 mg/dL | CARBON DIOXIDE [1]: 21.67 mmol/L | CHLORIDE [1]: 104.33 MEQ/L | CHOLESTEROL [1]: 73 mg/dL | CREATINE PHOSPHOKINASE [1]: 877.67 u/L | CREATININE [1]: 0.19 mg/dL | GLUCOSE [1]: 131.67 mg/dL | LACTATE DEHYDROGENASE [1]: 643.67 u/L | LIPASE [1]: 9.67 u/L | PHOSPHORUS [1]: 11.7 mg/dL | POTASSIUM [1]: 6.1 MEQ/L | SODIUM [1]: 144.23 MEQ/L | TOTAL BILIRUBIN [1]: 0.23 mg/dL | TOTAL PROTEIN [1]: 6.13 G/DL | URIC ACID [1]: 1.5 mg/dL | ABSOLUTE BASOPHIL [2]: 0 CELLS/uL | ABSOLUTE EOSINOPHIL [2]: 93.33 CELLS/uL | ABSOLUTE LYMPHOCYTE [2]: 7483.33 CELLS/uL | ABSOLUTE MONOCYTE [2]: 100 CELLS/uL | ABSOLUTE SEGMENTED NEUTROPHIL [2]: 856.67 CELLS/uL | BASOPHIL [2]: 0% | EOSINOPHIL [2]: 1% | ERYTHROCYTE COUNT [2]: 5.18 x10E6/uL | HEMATOCRIT [2]: 33.2% | HEMOGLOBIN [2]: 13 G/DL | LEUKOCYTE COUNT [2]: 8.53 x10E3/uL | LYMPHOCYTE [2]: 87.33% | MEAN CORPUSCULAR HEMOGLOBIN [2]: 25.1 pg | MEAN CORPUSCULAR HEMOGLOBIN CONCENTRATION [2]: 39.17 G/DL | MONOCYTE [2]: 1.33% | NEUTROPHIL [2]: 10.33% | NUCLEATED RED BLOOD CELLS [2]: 0 /100WBC | PLATELET COUNT [2]: 1248.33 x10E3/uL | ALANINE AMINOTRANSFERASE [2]: 55.33 u/L | ALBUMIN [2]: 3.8 G/DL | ALKALINE PHOSPHATASE [2]: 290.33 u/L | ASPARTATE AMINOTRANSFERASE [2]: 131.67 u/L | BLOOD UREA NITROGEN [2]: 18.33 mg/dL | CARBON DIOXIDE [2]: 24 mmol/L | CHLORIDE [2]: 105 MEQ/L | CHOLESTEROL [2]: 68.33 mg/dL | CREATINE PHOSPHOKINASE [2]: 1224.33 u/L | CREATININE [2]: 0.19 mg/dL | GLUCOSE [2]: 153 mg/dL | LACTATE DEHYDROGENASE [2]: 177.67 u/L | LIPASE [2]: 9.67 u/L | PHOSPHORUS [2]: 10.87 mg/dL | POTASSIUM [2]: 5.14 MEQ/L | SODIUM [2]: 144.9 MEQ/L | TOTAL BILIRUBIN [2]: 0.17 mg/dL | TOTAL PROTEIN [2]: 5.37 G/DL | URIC ACID [2]: 1.17 mg/dL | ABSOLUTE BASOPHIL [3]: 0 CELLS/uL | ABSOLUTE EOSINOPHIL [3]: 0 CELLS/uL | ABSOLUTE LYMPHOCYTE [3]: 9169.67 CELLS/uL | ABSOLUTE MONOCYTE [3]: 0 CELLS/uL | ABSOLUTE SEGMENTED NEUTROPHIL [3]: 630.33 CELLS/uL | BASOPHIL [3]: 0% | EOSINOPHIL [3]: 0% | ERYTHROCYTE COUNT [3]: 5.58 x10E6/uL | HEMATOCRIT [3]: 34% | HEMOGLOBIN [3]: 13.3 G/DL | LEUKOCYTE COUNT [3]: 9.8 x10E3/uL | LYMPHOCYTE [3]: 93.33% | MEAN CORPUSCULAR HEMOGLOBIN [3]: 23.83 pg | MEAN CORPUSCULAR HEMOGLOBIN CONCENTRATION [3]: 39.13 G/DL | MONOCYTE [3]: 0% | NEUTROPHIL [3]: 6.67% | NUCLEATED RED BLOOD CELLS [3]: 0 /100WBC | PLATELET COUNT [3]: 1205.67 x10E3/uL | ALANINE AMINOTRANSFERASE [3]: 63.33 u/L | ALBUMIN [3]: 3.8 G/DL | ALKALINE PHOSPHATASE [3]: 286.33 u/L | ASPARTATE AMINOTRANSFERASE [3]: 139.33 u/L | BLOOD UREA NITROGEN [3]: 16 mg/dL | CARBON DIOXIDE [3]: 21.33 mmol/L | CHLORIDE [3]: 104.67 MEQ/L | CHOLESTEROL [3]: 64.67 mg/dL | CREATINE PHOSPHOKINASE [3]: 1202.67 u/L | CREATININE [3]: 0.19 mg/dL | GLUCOSE [3]: 152 mg/dL | LACTATE DEHYDROGENASE [3]: 204 u/L | LIPASE [3]: 9 u/L | PHOSPHORUS [3]: 10.4 mg/dL | POTASSIUM [3]: 5.65 MEQ/L | SODIUM [3]: 146.07 MEQ/L | TOTAL BILIRUBIN [3]: 0.2 mg/dL | TOTAL PROTEIN [3]: 5.3 G/DL | URIC ACID [3]: 0.73 mg/dL
